The assay has as its target CCR2 (Homo sapiens (Human), UniProt P41597). The assay is described as follows: MCP-1 Receptor Binding Assay in THP-1 Cells.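 Also: THP-1 is a human monocytic cell line, and nonspecific binding was defined with 1 µM unlabeled MCP-1.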 The settings on record: 0.5 nM 125I labeled MCP-1, 2 hours at 30° C., read-out: Inhibition of MCP-1 Binding IC50 MCP1B.

Chain of CCR2 (P41597 whole entry): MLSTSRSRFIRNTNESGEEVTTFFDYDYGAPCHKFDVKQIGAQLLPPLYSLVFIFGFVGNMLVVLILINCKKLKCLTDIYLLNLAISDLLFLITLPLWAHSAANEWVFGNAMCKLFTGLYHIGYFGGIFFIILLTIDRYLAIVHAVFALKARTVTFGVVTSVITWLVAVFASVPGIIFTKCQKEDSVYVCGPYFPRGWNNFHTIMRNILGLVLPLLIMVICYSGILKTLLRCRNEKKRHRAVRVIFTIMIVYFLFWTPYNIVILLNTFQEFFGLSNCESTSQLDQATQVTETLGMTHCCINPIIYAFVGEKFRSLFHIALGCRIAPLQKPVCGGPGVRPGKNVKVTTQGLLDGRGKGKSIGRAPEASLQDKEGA

Broadly, the IC50 is the concentration needed to halve the response being measured. For the compound `CCOCC1CCC(N2CC(NC(=O)CNc3ncnc4ccc(C(F)(F)F)cc34)C2)CC1` (stereo not shown) [Example 105, N-(1-(4-(ethoxymethyl)cyclohexyl)azetidin-3-yl)-2-((6-(trifluoromethyl)quinazolin-4-yl)amino)acetamide], the IC50 is 14 nM.
For the compound `CC(C)[C@H](O)[C@H]1CC[C@H](N2CC(NC(=O)CNc3nncc4ccc(C(F)(F)F)cc34)C2)CC1` (racemic) [Example 160, N-(1-((1S,4r)-4-((S)-1-hydroxy-2-methylpropyl)cyclohexyl)azetidin-3-yl)-2-((7-(trifluoromethyl)phthalazin-1-yl)amino)acetamide], the IC50 turned out to be 22 nM.
Take `O=C(CNc1ncnc2ccc(C(F)(F)F)cc12)NC1CN([C@H]2CC[C@@H](N3CCS(=O)(=O)CC3)CC2)C1` [Example 134, N-(1-((1s,4s)-4-(1,1-dioxidothiomorpholino)cyclohexyl)azetidin-3-yl)-2-((6-(trifluoromethyl)quinazolin-4-yl)amino)acetamide]: the IC50 came to 72 nM.
Consider `CN(C)C(=O)[C@H]1CC[C@@H](N2CC(NC(=O)CNc3ncnc4ccc(C(F)(F)F)cc34)C2)CC1` [Example 128, (1s,4s)-N,N-dimethyl-4-(3-(2-((6-(trifluoromethyl)quinazolin-4-yl)amino)acetamido)azetidin-1-yl)cyclohexanecarboxamide], for which the IC50 is 360 nM.
Under `O=C(CNc1ncnc2ccc(C(F)(F)F)cc12)NC1CN([C@H]2CC[C@@H](c3ccccc3CO)CC2)C1` [Example 73, N-(1-((1s,4s)-4-(2-(hydroxymethyl)phenyl)cyclohexyl)azetidin-3-yl)-2-((6-(trifluoromethyl)quinazolin-4-yl)amino)acetamide] stands 55 nM; under `N#Cc1cc(NCC(=O)NC2CN([C@H]3CC[C@@H](n4ccccc4=O)CC3)C2)c2cc(C(F)(F)F)ccc2n1` [Example 60, 2-((2-cyano-6-(trifluoromethyl)quinolin-4-yl)amino)-N-(1-((1s,4s)-4-(2-oxopyridin-1(2H)-yl)cyclohexyl)azetidin-3-yl)acetamide], 40 nM.
For `CCC(O)[C@H]1CC[C@@H](N2CC(NC(=O)CNc3cc(C(F)(F)F)nc4ccc(C(F)(F)F)cc34)C2)CC1` (stereo partly shown) [Example 25, 2-((2,6-bis(trifluoromethyl)quinolin-4-yl)amino)-N-(1((-1R,4s)-4-(1-hydroxypropyl)cyclohexyl)azetidin-3-yl)acetamide] the value was 99 nM.
As for `O=C(CNc1ncnc2ccc(C(F)(F)F)cc12)N[C@H]1C[C@H](N2CCC(O)(c3cncs3)CC2)C1` [Example 162, N-((1r,3R)-3-(4-hydroxy-4-(thiazol-5-yl)piperidin-1-yl)cyclobutyl)-2-((6-(trifluoromethyl)quinazolin-4-yl)amino)acetamide], the 50% inhibitory concentration (IC50) is 1220 nM.
For `CN(C(=O)OCc1ccccc1)[C@H]1CC[C@@H](N2CC(NC(=O)CNc3ncnc4ccc(C(F)(F)F)cc34)C2)CC1` [Example 42] the value was 210 nM; for `O=C(CNc1ncnc2ccc(C(F)(F)F)cc12)NC1CN([C@H]2CC[C@@H](C(O)C3CC3)CC2)C1` (stereo partly drawn) [Example 3, N-(1-((1S,4s)-4-(cyclopropyl(hydroxy)methyl)cyclohexyl)azetidin-3-yl)-2-((6-(trifluoromethyl)quinazolin-4-yl)amino)acetamide], 22 nM.
With `O=C(CNc1ncnc2ccc(C(F)(F)F)cc12)NC1CN([C@H]2CC[C@@H]([C@@H](O)C3CC3)CC2)C1` [(−) 4, N-(1-((1S,4s)-4-(cyclopropyl(hydroxy)methyl)cyclohexyl)azetidin-3-yl)-2-((6-(trifluoromethyl)quinazolin-4-yl)amino)acetamide], the IC50 was found to be 8 nM.
Under `O=C(CNc1ncnc2ccc(C(F)(F)F)cc12)NC1CN([C@H]2CC[C@@H](C(O)c3cncs3)CC2)C1` (stereo partly drawn) [Example 99, N-(1-((1R,4s)-4-(hydroxy(thiazol-5-yl)methyl)cyclohexyl)azetidin-3-yl)-2-((6-(trifluoromethyl)quinazolin-4-yl)amino)acetamide] stands 19 nM; under `O=C(CNc1ncnc2ccc(C(F)(F)F)cc12)NC1CN([C@H]2CC[C@@H](C(=O)N3CCCC3)CC2)C1` [Example 130, N-(1-((1s,4s)-4-(pyrrolidine-1-carbonyl)cyclohexyl)azetidin-3-yl)-2-((6-(trifluoromethyl)quinazolin-4-yl)amino)acetamide], 1000 nM; under `CC(=O)N[C@H]1CC[C@@H](N2CC(NC(=O)CNc3ncnc4ccc(C(F)(F)F)cc34)C2)CC1` [Example 41, N-(1-((1s,4s)-4-acetamidocyclohexyl)azetidin-3-yl)-2-((6-(trifluoromethyl)quinazolin-4-yl)amino)acetamide], 670 nM.
For `CN([C@H]1CC[C@@H](N2CC(NC(=O)CNc3ncnc4ccc(C(F)(F)F)cc34)C2)CC1)S(C)(=O)=O` [Example 49, N-(1-((1s,4s)-4-(N-methylmethylsulfonamido)cyclohexyl)azetidin-3-yl)-2-((6-(trifluoromethyl)quinazolin-4-yl)amino)acetamide] the value was 950 nM; for `O=C(CNc1ncnc2ccc(C(F)(F)F)cc12)NC1CN([C@H]2CC[C@@H](CO)CC2)C1` [Example 109, N-(1-((1s,4s)-4-(hydroxymethyl)cyclohexyl)azetidin-3-yl)-2-((6-(trifluoromethyl)quinazolin-4-yl)amino)acetamide], 58 nM; for `C=CCC(O)[C@H]1CC[C@@H](N2CC(NC(=O)CNc3ncnc4ccc(C(F)(F)F)cc34)C2)CC1` (stereo partly drawn) [Example 91, N-(1-((1S,4s)-4-(1-hydroxybut-3-en-1-yl)cyclohexyl)azetidin-3-yl)-2-((6-(trifluoromethyl)quinazolin-4-yl)amino)acetamide], 16 nM.
Turning to `CON(C)C(=O)C1CCC(N2CC(NC(=O)CNc3ncnc4ccc(C(F)(F)F)cc34)C2)CC1` (stereo not shown) [Example 126], the IC50 was found to be 91 nM.
For `NC(=O)c1cc(NCC(=O)NC2CN([C@H]3CC[C@@](O)(c4cncs4)CC3)C2)c2cc(C(F)(F)F)ccc2n1` [Example 62] the value was 9 nM; for `O=C(CNc1ncnc2ccc(C(F)(F)F)cc12)NC1CN([C@H]2CC[C@@H](C3CCOCC3)CC2)C1` [Example 38, N-(1-((1s,4s)-4-(tetrahydro-2H-pyran-4-yl)cyclohexyl)azetidin-3-yl)-2-((6-(trifluoromethyl)quinazolin-4-yl)amino)acetamide], 160 nM; for `O=C(CNc1ncnc2ccc(C(F)(F)F)cc12)NC1CN(C2CCC(N3CCCC3=O)CC2)C1` (stereo not shown) [Example 40, N-(1-(4-(2-oxopyrrolidin-1-yl)cyclohexyl)azetidin-3-yl)-2-((6-(trifluoromethyl)quinazolin-4-yl)amino)acetamide], 78 nM.
Take `CC(C)[C@@H](O)[C@H]1CC[C@H](N2CC(NC(=O)CNc3nccc4ncc(C(F)(F)F)cc34)C2)CC1` [Example 156, N-(1-((1R,4r)-4-((R)-1-hydroxy-2-methylpropyl)cyclohexyl)azetidin-3-yl)-2-((3-(trifluoromethyl)-1,6-naphthyridin-5-yl)amino)acetamide]: the IC50 is 430 nM.
Under `CCC(NC(N)=O)[C@H]1CC[C@@H](N2CC(NC(=O)CNc3ncnc4ccc(C(F)(F)F)cc34)C2)CC1` (stereo partly drawn) [Example 141, 2((6-(trifluoromethyl)quinazolin-4-yl)amino)-N-(1-((1R,4s)-4-((S)-1-ureidopropyl)cyclohexyl)azetidin-3-yl)acetamide] stands 250 nM; under `CCC(NC(=O)OC)[C@H]1CC[C@@H](N2CC(NC(=O)CNc3ncnc4ccc(C(F)(F)F)cc34)C2)CC1` (stereo partly drawn) [Example 144, methyl ((S)-1-((1s,4R)-4-(3-(2-((6-(trifluoromethyl)quinazolin-4-yl)amino)acetamido)azetidin-1-yl)cyclohexyl)propyl)carbamate], 640 nM; under `O=C1C=CCC([C@H]2CC[C@@H](N3CC(NC(=O)CNc4ncnc5ccc(C(F)(F)F)cc45)C3)CC2)N1` (stereo partly drawn) [Example 11, N-(1-((1S,4s)-4-(6-oxo-1,2,3,6-tetrahydropyridin-2-yl)cyclohexyl)azetidin-3-yl)-2-((6-(trifluoromethyl)quinazolin-4-yl)amino)acetamide], 12 nM.
Take `O=C(CNc1ncnc2ccc(C(F)(F)F)cc12)NC1CN(C2CCC([C@@H](O)C3CC3)CC2)C1` (single isomer, unassigned; (-)) [(−) 6]: the 50% inhibitory concentration (IC50) turned out to be 8 nM.
For the compound `N#Cc1cc(NCC(=O)N[C@H]2C[C@@H](N3CCC(O)(c4cncs4)CC3)C2)c2cc(C(F)(F)F)ccc2n1` [Example 163, 2-((2-cyano-6-(trifluoromethyl)quinolin-4-yl)amino)-N-((1s,3s)-3-(4-hydroxy-4-(thiazol-5-yl)piperidin-1-yl)cyclobutyl)acetamide], the IC50 amounted to 2600 nM.
For `CCC(NC(=O)N(C)C)[C@H]1CC[C@@H](N2CC(NC(=O)CNc3ncnc4ccc(C(F)(F)F)cc34)C2)CC1` (stereo partly drawn) [Example 143, N-(1-((1R,4s)-4-((S)-1-(3,3-dimethylureido)propyl)cyclohexyl)azetidin-3-yl)-2-((6-(trifluoromethyl)quinazolin-4-yl)amino)acetamide] the value was 13800 nM; for `O=C(CNc1ncnc2ccc(C(F)(F)F)cc12)NC1CN([C@H]2CC[C@@H](N3C(=O)CCC3=O)CC2)C1` [Example 57, N-(1-((1s,4s)-4-(2,5-dioxopyrrolidin-1-yl)cyclohexyl)azetidin-3-yl)-2-((6-(trifluoromethyl)quinazolin-4-yl)amino)acetamide], 280 nM; for `O=C(CNc1ncnc2ccc(C(F)(F)F)cc12)NC1CN([C@H]2CC[C@@H](C3(O)CC=CC3)CC2)C1` [Example 28], 23 nM.
Under `O=C(CNc1ncnc2ccc(C(F)(F)F)cc12)NC1CN([C@H]2CC[C@@H](C3CNC(=O)O3)CC2)C1` (stereo partly drawn) [Example 22, N-(1-((1S,4s)-4-(2-oxooxazolidin-5-yl)cyclohexyl)azetidin-3-yl)-2-((6-(trifluoromethyl)quinazolin-4-yl)amino)acetamide] stands 64 nM.
